Test results published in the supplement of paper PMC8239392.

Legend:
[1] = system: TAZ-IND MCF10A-TAZ tumor cells; assay: cell viability relative to DMSO control; higher = less cytotoxic; extreme values may be limits of the assay; details: 72 h
Procedure: (§1)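 TAZ-dependent (grown with 2 ug/ml dox) and TAZ-independent MCF10A-TAZ tumor-derived breast cancer stem-like cells were plated in 384-well plates and treated with serially diluted compounds (0.65-10 uM) for 72 h. Viability was read by resazurin assay and expressed as % of DMSO-treated control.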

[2] = system: TAZ-DEP MCF10A-TAZ tumor cells; assay: as above; details: 72 h
Procedure: as §1

| Structure (SMILES) | cell viability ([1]; 0.65 µM) | cell viability ([1]; 1.25 µM) | cell viability ([1]; 2.5 µM) | cell viability ([1]; 5 µM) | cell viability ([1]; 10 µM) | cell viability ([2]; 0.65 µM) | cell viability ([2]; 1.25 µM) | cell viability ([2]; 2.5 µM) | cell viability ([2]; 5 µM) | cell viability ([2]; 10 µM) |
| --- | --- | --- | --- | --- | --- | --- | --- | --- | --- | --- |
| CC(=O)c1c(C)c2cnc(Nc3ccc(N4CCNCC4)cn3)nc2n(C2CCCC2)c1=O | 100% | 100% | 100% | 100% | 96% | 79% | 73% | 70% | 59% | 41% |
| CCN(CC)CCCC(C)Nc1nc(C)cc(Nc2ccc3nc(C)cc(N)c3c2)n1 (stereo not given) | 80% | 81% | 90% | 80% | 73% | 50% | 54% | 47% | 50% | 34% |
| CN1CCN(CCCNc2ncc(Cl)c(-c3cc4c(C(=O)NC5CC5)cccc4s3)n2)CC1 | 94% | 91% | 87% | 84% | 80% | 74% | 67% | 63% | 63% | 65% |
| COc1ccccc1S(=O)(=O)Nc1ccc2c(c1)CN(C)C(=O)N2 | 100% | 100% | 94% | 91% | 85% | 91% | 79% | 63% | 54% | 41% |
| Cc1c(Cc2ccc3ccccc3n2)c2cc(F)ccc2n1CC(=O)O | 90% | 94% | 90% | 77% | 55% | 90% | 82% | 69% | 57% | 33% |
| O=C(NOC[C@H](O)CO)c1ccc(F)c(F)c1Nc1ccc(I)cc1F | 82% | 87% | 84% | 80% | 78% | 52% | 56% | 53% | 47% | 48% |
| O=C(O)c1cc2cccc([N+](=O)[O-])c2[nH]1 | 100% | 100% | 100% | 97% | 70% | 100% | 98% | 87% | 47% | 2% |
| O=C1NC(=O)/C(=C/c2ccc(-c3ccc(F)cc3O)o2)S1 | 72% | 75% | 72% | 67% | 63% | 62% | 53% | 51% | 46% | 43% |
| O=[N+]([O-])C=Cc1ccc2c(c1)OCO2 | 100% | 99% | 98% | 98% | 31% | 100% | 100% | 100% | 78% | 1% |
| CN(C)CCSSCCNC(=O)C1CCN(C(=O)CSc2ccc(Cl)cc2)CC1 [6H05] | 99% | 98% | 92% | 88% | 83% | 96% | 91% | 89% | 66% | 23% |
| COCCOc1cnc2ccn([C@H](C)c3nnc4c(F)cc(-c5cnn(C)c5)cn34)c(=O)c2c1 [AMG 337] | 97% | 97% | 100% | 97% | 100% | 88% | 84% | 77% | 68% | 60% |
| COC1CCN(C(=O)c2cc(Cc3n[nH]c(=O)c4ccccc34)ccc2F)CC1 [AZD2461] | 94% | 89% | 91% | 83% | 78% | 94% | 91% | 94% | 70% | 56% |
| Cc1[nH]nc(C(F)(F)F)c1Cc1sc2c(c1C(=O)N1C[C@](C)(O)CO1)c(=O)n(C)c(=O)n2C(C)C [AZD3965] | 92% | 87% | 91% | 60% | 47% | 54% | 49% | 45% | 39% | 32% |
| C[C@H]1COC2=C1C(=O)C(=O)c1c2ccc2c1CCCC2(C)C [Cryptotanshinone] | 96% | 97% | 93% | 87% | 79% | 96% | 94% | 92% | 74% | 30% |
| NCCCC[C@@H]1NC(=O)[C@@H](Cc2ccc(O)cc2)NC(=O)[C@H](CC(=O)O)NC(=O)CNC(=O)[C@H](CCCN=C(N)N)NC1=O [Cyclo(RGDyK)] | 98% | 94% | 86% | 74% | 65% | 99% | 86% | 59% | 49% | 27% |
| CCCCCCCCCCCC1=C(O)C(=O)C=C(O)C1=O [Embelin] | 89% | 90% | 90% | 89% | 82% | 89% | 84% | 75% | 57% | 28% |
| CCn1c2ccccc2c2cc(CNCc3ccccc3OC)ccc21 [HLCL-61] | 97% | 99% | 100% | 100% | 95% | 100% | 100% | 100% | 89% | 59% |
| C#Cc1cccc(Nc2ncnc3cc4c(cc23)OCCOCCOCCO4)c1 [Icotinib] | 100% | 100% | 100% | 100% | 96% | 100% | 100% | 100% | 89% | 34% |
| Nc1nc(OCc2cc(Br)cs2)c2[nH]cnc2n1 [Lomeguatrib] | 96% | 98% | 97% | 100% | 85% | 96% | 91% | 90% | 55% | 36% |
| O=C([C@@H](Cc1cccc(C(F)(F)F)c1)NS(=O)(=O)c1cc(F)c2c(c1)CCNC2)N1CCCC1 [PFI-2] | 97% | 94% | 92% | 85% | 78% | 94% | 85% | 72% | 56% | 46% |
